The text below walks through data of US6242450A, “5-HT1F antagonists” (Eli Lilly and Company, priority 1999, dated 2001).

This test relates to male Wister rats. Description: Social interaction test of anxiety. Type of test: in vivo. Particulars: rat, 20 mg/kg intraperitoneal, 1 hour before test, 5 minutes observation, significance at p<0.01. As for the experimental part: The procedure for this assay is summarized below.
All experiments were performed on male Wister rats (Harlan laboratories, 275-300 gm). The rats were individually housed in a temperatu,re controlled room (72° F.) on a 12 hour day/night cycle. The rats were provided food and water ad libitum.
Approximately 40 mg of the test compound was weighed into a 20 mL glass vial. To this solid were added 80 μL of lactic acid (85%). The mixture was sonicated for 2 minutes and then 4 mL of distilled water was added in 1 mL increments. Sonication of this mixture was continued until all of the solid had dissolved. Following sonication, the pH of the mixture was raised by the addition of dilute aqueous sodium hydroxide until the mixture reached a pH of about 5.5.
Each rat was weighed and the test compound administered by intraperitoneal injection at 20 mg/kg of body weight. […]
Experimental anxiety was measured by a social interaction test. […] A video camera was fixed above the social interaction box and all behavioral tests were recorded. […] The amount of time that the rat which received test compound spent interacting (i.e. grooming, sniffing, crawling upon) with the other rat was recorded. […]
Social interaction data was analyzed as total interaction time in seconds and the raw scores were compared between baseline and treatment. […]

Molecules are shown by their SMILES.

Regarding `O[C@H](COc1ccc2ccccc2c1)CN1CCC(O)(c2cnc3ccccc3c2)CC1` [Example 37, 1-((2S)-hydroxy-3-(naphth-2-yloxy)prop-1-yl)-4-hydroxy-4-(quinolin-3-yl)piperidine], the “social interaction time as compared to baseline” value is “significantly increase social interaction time as compared to baseline”.
